Measured values reported in a melting point compilation (Tetko et al.).

Compound | melting point
O=C1C(=Cc2ccco2)SC(=S)N1CN1CCCCC1 | 120 to 121 °C
Nc1n[nH]c(-c2ccccc2)c1Br | 118 to 120 °C
O=C1CSc2ccccc2N1 | 178 to 181 °C
N#Cc1cc([N+](=O)[O-])cc(Cl)c1N | 180 to 185 °C
C=CCNC(=O)NCC=C | 91.5 °C
CC1=CC(=O)C(C(=O)OC2CC(C)CCC2C(C)C)C(C)C1C(=O)OC1CC(C)CCC1C(C)C (centres undefined) | 185 to 186 °C
O=C(c1ccc[nH]1)C(Cl)(Cl)Cl | 72 to 74 °C
N#Cc1ccccc1N1CCCCC1 | 45 to 48 °C
CC1=NCCN1 | 107 °C
Brc1ccc(Oc2ccc(Br)c(Br)c2Br)c(Br)c1Br | 183 °C
COC(=O)C1=C(C(=O)OC)[C@@H]2C=C[C@H]1c1cc3ccccc3c(-c3ccccc3)c12 | 219 °C
C=COC(=O)C(CC)CCCC (centres undefined) | -90 °C
CC1CC2C(C(O)CC3(C)C2CCC3(O)C(=O)CO)C2(C)C=CC(=O)C=C12 (centres undefined) | 233 °C
C1C2CC3CC1CC(C2)C3 | 267 °C
Nc1nnc(C2CC2)[nH]1 | 128 to 130 °C
CCOC(=O)c1c(NC(=S)Nc2ccc(Cl)cc2)sc2c1CCN(Cc1ccccc1)C2 | 169 to 172 °C
CC(C)C1CCCCC1 | -89.4 °C
Cc1cccc(/N=N/c2c(N)nn3c(C(F)(F)F)cc(C)nc23)c1 | 209 °C
CCC(C)CCC(C)O (centres undefined) | -61 °C
CCOC(=O)/C(C#N)=C(/SC)N(C)C | 90 to 94 °C
CCOc1cc(C)ccc1O | 30.5 °C
CC12CCC(C1(C)C)C(CCC(Br)c1ccccc1)(C1(CCC(Br)c3ccccc3)C(=O)C3(C)CCC1C3(C)C)C2=O (centres undefined) | 168 °C
CC(=O)NCCN | 47 °C
O=S(=O)(n1ccnc1)n1ccnc1 | 135 to 137 °C
Ic1ccc(N2CCOCC2)cc1 | 131 to 132 °C
CCN(CC)CCNC(=O)c1cc(Cl)c(N)cc1OC | 146 °C

Compound | melting point
CC(CCC(=O)O)C1CCC2C3C(=O)CC4CC(=O)CCC4(C)C3CC(=O)C12C (centres undefined) | 237 °C
CCOC(=O)c1ccccc1C(=O)OCC | -40.5 °C
Cc1cccc(C)c1NC(=O)c1cncc(Cl)n1 | 122 °C
CC(=NO)c1cccs1 | 113 to 114 °C
BrCc1cc(CBr)c(CBr)cc1CBr | 156 to 162 °C
OC[C@H]1OC(Nc2ccccc2)C[C@@H]1O (some centres undefined) | 151 °C
Cc1nn(-c2ccccc2)nc1C(=O)O | 203 °C
CN=C=O | -45 °C
CCOC(=O)c1nn(-c2ccc(C)cc2)c(C)c1C(=O)c1noc(-c2ccc(Cl)cc2)c1S(=O)(=O)c1ccccc1 | 230 °C
CC(=O)OC1C(O)C2=C(C(=O)C(OC(C)=O)C3(CC3C)C2=O)C2(C)CCC(OC(C)=O)C(C)(C)C12 (centres undefined) | 116 to 117 °C
O=C(Nc1ccccc1/C=C/c1ccccc1)c1ccccc1 | 168 °C
CCCCCc1ccc(OC(=O)c2ccc(OC(=O)c3ccc(CCCCC)cc3)cc2Cl)cc1 | 39 to 122 °C
C1CSC1 | -73.2 °C
O=[N+]([O-])c1ccc(S(=O)(=O)Cl)cc1C(F)(F)F | 64 °C
CC(C)(C)N=O | 81 to 83 °C
COC(=O)C1(C(=O)OC)Cc2c(C)cccc2C(=O)O1 | 100 °C
O=C(Nc1ccc(Cl)c(Cl)c1)c1cc(Cl)cc(Cl)c1O | 162 °C
N#Cc1c(F)c(F)c(C#N)c(F)c1F | 198 °C
c1cnc2ccc3ncccc3c2c1 | 177 °C
NNc1nc(N)nc(C23CC4CC(CC(C4)C2)C3)n1 | 265 to 267 °C
CCCc1cc(C(C)=O)c(O)cc1O | 99 to 101 °C
O=[N+]([O-])c1cc([N+](=O)[O-])c(Cl)c(C(F)(F)F)c1 | 63 °C
Nc1ccc(/C(=C\c2ccccc2N)C(=O)O)cc1 | 186 °C
CNC(=O)COc1ccccc1OCC(O)CNC(C)(C)C (centres undefined) | 96.5 °C
NCc1ccc(-c2nccs2)cc1 | 39 to 42 °C
C=C(C)C(=O)Cl | -60 °C

Compound | melting point
Nc1cc(Cl)ccc1[N+](=O)[O-] | 128 °C
COC(=O)c1ccc([N+](=O)[O-])cc1C(=O)OC | 67 °C
c1ccc(CN2CCc3c([nH]c4ccccc34)C2)cc1 | 165 to 170 °C
Cc1occc1C(=O)O | 102 to 105 °C
N#Cc1c(NC(=O)c2ccccc2)sc2c1CCCC2 | 110 °C
COc1ccc(Br)cc1C=O | 116 °C
CC1C(=O)CCCC1=O | 206 °C
ClC(Cl)(Br)C(Cl)(Cl)Br | 220 to 222 °C
O=C(C=Cc1ccccc1O)c1cccc(C(=O)C=Cc2ccccc2O)c1 | 150 °C
CC1(C)CC(=O)C(Cl)C(=O)C1 | 163 °C
FC(F)(F)c1ccc2[nH]c(S)nc2c1 | 277 to 279 °C
NNC(=O)c1cnn(-c2ccc(Cl)cc2)c1C(F)(F)F | 179 to 181 °C
CCOc1ccc2[nH]c(S)nc2c1 | 249 °C
CCOc1ccc(Br)cc1C=O | 69 °C
O=C(Nc1ccc(N=Nc2ccc(N=Nc3ccc(NC(=O)c4ccccc4)cc3)cc2)cc1)c1ccccc1 | 336 °C
Nc1ccc2c(c1)CS(=O)(=O)C2 | 186 to 187 °C
O=C(Cl)COc1ccc(Cl)cc1 | 19 °C
COc1cc(I)c(OC)cc1C | 84 to 86 °C
CC(C)C1(NC(=O)c2ccccc2)COCOC1=O (racemic) | 161 to 162 °C
CC(=O)CCc1cc2c(cc1N=Nc1ccccc1C(=O)O)CCC(C)N2 (centres undefined) | 157 °C
CC1(C)SC2C(NC(=O)C3(N)CCCCC3)C(=O)N2C1C(=O)O (centres undefined) | 182 °C
O=Cc1ccccc1CN1CCOCC1 | 67 to 68 °C
O=C=Nc1ccc2c(c1)CCO2 | 42 to 43 °C
CNC(=O)CSP(=O)(OC)OC | -28 °C
CCOC(=O)c1nn(-c2ccc(C)cc2)c(C)c1C(=O)C1=NOC2C(=O)N(c3ccc(C(=O)O)cc3)C(=O)C12 (centres undefined) | 281 °C
COc1ccc(Br)cc1S(=O)(=O)Cl | 114 °C

Compound | melting point
O=C(O)C(O)C(Cl)(Cl)Cl (centres undefined) | 125 °C
C=CCC1(C(C)CC)C(=O)NC(=O)NC1=O (centres undefined) | 109 °C
CCOC(=O)c1cc2cc3cc(C(=O)OCC)c(C)nc3cc2nc1C | 167 °C
Cn1c(=O)c(C2=NNC(=O)C2=C2C(=O)Nc3ccccc32)c(O)c2ccccc21 | 279 °C
NNC(=S)NCc1ccccc1 | 130 °C
CN(C)C=Nc1c(I)cc(I)c(CCC(=O)O)c1I | 168 °C
Cc1ccc(C(=O)C2=NOC3C(=O)N(c4ccc(F)cc4)C(=O)C23)cc1 (centres undefined) | 173 °C
Cc1ccc(Cn2ncc3c(N)ncnc32)cc1 | 222 °C
O=C(C=Cc1cccc(O)c1)c1ccccc1 | 156 to 158 °C
O=C1COC(c2ccc(C(F)(F)F)cc2)CN1 (centres undefined) | 116 °C
O=CC12CC=CCC1C1CC=CCC1O2 (centres undefined) | -80 °C
CN=C(NC)NCc1ccccc1 | 196 °C
CCOc1ccc2ccccc2c1C(=O)O | 144 °C
Cc1cccc(C)c1NC(=O)c1cc(S(N)(=O)=O)c(Cl)cc1O | 256 °C
CC(=C\OC(=O)c1ccccc1)/C(C)=N/OC(=O)c1ccccc1 | 231 to 232 °C
CCCCCCCCOc1ccccc1 | 8 °C
NCC(F)C(=O)O (racemic) | 222 to 223 °C
Cc1ccccc1NC(=S)/C(=N\NC(=N)N)c1ccccc1 | 206 to 207 °C
Cc1cc(I)cc(C)c1O | 99 to 102 °C
N#CC(=Cc1ccccc1)C(=O)O | 175 °C
O=C(CCl)Nc1ccc(Cl)cc1Cl | 105 to 108 °C
CC(C)Cc1ccc(C(=O)C=Cc2cccc([N+](=O)[O-])c2)cc1 | 104 to 107 °C
COc1ccc(C(N)=O)cc1[N+](=O)[O-] | 175 °C
CCOC(=O)C(CCc1ccccc1)NC1CCc2ccccc2N(CC(=O)O)C1=O (centres undefined) | 148 °C
CC(C)=C/C=C/C=N/Nc1ccc([N+](=O)[O-])cc1[N+](=O)[O-] | 205 to 206 °C
CCC(C)(C)[C@H]1CC[C@H](O)CC1 | 26 °C

Compound | melting point
CCCn1cnc2c1c(=O)n(CCCCC(C)=O)c(=O)n2C | 69 °C
O=C(O)c1ncccc1O | 208 to 212 °C
COc1ccc(O)cc1C(C)(C)C | 48 °C
OCc1ccc(-c2cccnc2)cc1 | 106 to 107 °C
CC(=O)N[C@@H](CC(C)C)C(=O)O | 178 °C
Cc1n[nH]c(C)c1-c1ccccc1 | 133 to 134 °C
O=C(NC(CO)C(=O)O)OCc1ccccc1 (racemic) | 122 to 126 °C
CCC(C)OC(=O)C1=C(C)NC(=O)NC1c1ccco1 (centres undefined) | 185 °C
CC(C)CNC(=O)C(C(F)(F)F)C(F)(F)F | 111 °C
O=C(OC(C(=O)c1ccc2c3c(cccc13)CC2)c1ccccc1)c1ccccc1 (centres undefined) | 156 °C
N#CCC(=O)c1cccc(C(F)(F)F)c1 | 61 °C
Cn1ncc(Br)c1NC(=O)CCl | 137 to 139 °C
Cc1cc2ccccc2c(-c2ccccc2)n1 | 87 °C
CC1CC(=O)C(=O)C1C (centres undefined) | 64 to 69 °C
CSc1nnc(N)s1 | 176 to 180 °C
O=CNNC=O | 156 °C
Cc1ccccc1N | -16.3 °C
Cc1ccc(C(=O)C2=NN(c3ccccc3)C3C(=O)N(c4cccc([N+](=O)[O-])c4)C(=O)C23)cc1 (centres undefined) | 176 °C
CC1(C)Cc2cccc(CO)c2O1 | 59 to 60 °C
CC1(C)CC(=O)c2cc(-c3ccccc3)n(CCc3ccccc3)c2C1 | 113 to 115 °C
CC(C)(C)c1nnc(NS(=O)(=O)c2ccccc2)s1 | 163 °C
Nc1c(Br)cc(Br)c(Cl)c1C(=O)O | 212 to 215 °C
Oc1ccccc1Cc1ccccc1 | 52 °C
NS(=O)(=O)c1cc([N+](=O)[O-])c(Cl)s1 | 160 to 162 °C
O=c1[nH]c2ccc(Br)cc2s1 | 228 to 232 °C
